{"source": "patent US20260217711A1", "about": "“TRIAZOLOPYRIDINYL ETHER LINKED COMPOUNDS AS KINASE INHIBITORS” (Bristol-Myers Squibb Company, priority 2023, published 2026)"}
{"test_system": "MLKL phosphorylation (pMLKL) in HT29-L23 cells", "experiment": "MLKL Phosphorylation High-Content Assay", "format": "cell-based", "settings": "Homo sapiens, 6 h, necroptosis induced with human TNFα, SMAC mimetic and Z-VAD, read-out: LE pMLKL HC IC50", "procedure": "(§1) Following 6 h incubation at 37° C. […] MLKL phosphorylation was detected using anti-MLKL (phospho […]) antibody (Abcam #ab187091) (1:1000 dilution in Blocking Buffer [PBS supplemented with 0.1% BSA]) with ON incubation at 4° C. […] Following another three cycles of washes in PBS, the microplates were sealed, and cellular images were acquired in the Cellomics ArrayScan VTI high-content imager equipped with an X1 camera. […] The image sets were analyzed using the Compartmental Analysis Bioapplication software (Cellomics). The level of MLKL phosphorylation was quantified as […].", "units": {"IC50": "nM"}}
{"smiles": "COc1ccc(OCCC(F)(F)C(C)(O)c2ccc(F)cc2)c(F)c1-c1ccn2nc(N)nc2c1", "note": "(racemic) [Example 22, 5-(3-(2-amino-[1,2,4]triazolo[1,5-a]pyridin-7-yl)-2-fluoro-4-methoxyphenoxy)-3,3-difluoro-2-(4-fluorophenyl)pentan-2-ol]", "IC50": 0.9}
{"smiles": "CC(O)(c1ccccc1)C(F)(F)CCOc1cccc(-c2ccn3nc(N)nc3c2)c1F", "note": "(single isomer, unassigned) [Example 68, 5-(3-(2-amino-[1,2,4]triazolo[1,5-a]pyridin-7-yl)-2-fluorophenoxy)-3,3-difluoro-2-phenylpentan-2-ol]", "IC50": 0.1}
{"test_system": "MLKL phosphorylation (pMLKL) in HT29-L23 cells", "experiment": "MLKL Phosphorylation High-Content Assay", "format": "cell-based", "settings": "necroptosis induced with human TNFα, SMAC mimetic and Z-VAD, 6 h, read-out: LE pMLKL HC IC50", "procedure": "as §1", "units": {"IC50": "nM"}}
{"smiles": "Nc1nc2cc(-c3cc(F)c(F)c(OCCC(F)C(O)c4ccc(F)cc4)c3)ccn2n1", "note": "(single isomer, unassigned) [Example 119, 4-(5-(2-amino-[1,2,4]triazolo[1,5-a]pyridin-7-yl)-2,3-difluorophenoxy)-2-fluoro-1-(4-fluorophenyl)butan-1-ol]", "IC50": 580}
{"smiles": "CC(O)(c1ccc(F)cc1)C(F)(F)CCOc1cccc(-c2ccn3nc(N)nc3c2)c1C(F)F", "note": "(single isomer, unassigned) [Example 24, 5-(3-(2-amino-[1,2,4]triazolo[1,5-a]pyridin-7-yl)-2-(difluoromethyl)phenoxy)-3,3-difluoro-2-(4-fluorophenyl)pentan-2-ol]", "IC50": 6000}
{"smiles": "CC(O)(c1ccc(F)cc1)C(F)(F)CCOc1ccc(F)c(-c2ccn3nc(N)nc3c2)c1F", "note": "(single isomer, unassigned) [Example 9, 5-(3-(2-amino-[1,2,4]triazolo[1,5-a]pyridin-7-yl)-2,4-difluorophenoxy)-3,3-difluoro-2-(4-fluorophenyl)pentan-2-ol]", "IC50": 0.1}
{"smiles": "CC(N)(c1ccc(F)cc1)C(F)(F)CCOc1c(F)ccc(-c2ccn3nc(N)nc3c2)c1F", "note": "(single isomer, unassigned) [Example 17, 7-(3-((4-amino-3,3-difluoro-4-(4-fluorophenyl)pentyl)oxy)-2,4-difluorophenyl)-[1,2,4]triazolo[1,5-a]pyridin-2-amine]", "IC50": 60}
{"smiles": "Nc1nc2cc(-c3ccc(C(F)(F)F)c(OCCC(F)C(O)c4ccc(F)cc4)c3F)ccn2n1", "note": "(single isomer, unassigned) [Example 111, 4-(3-(2-amino-[1,2,4]triazolo[1,5-a]pyridin-7-yl)-2-fluoro-6-(trifluoromethyl)phenoxy)-2-fluoro-1-(4-fluorophenyl)butan-1-ol]", "IC50": 29}
{"smiles": "CC(O)(c1ccc(F)cc1)C(F)CCOc1cc(-c2ccn3nc(N)nc3c2)cc(F)c1F", "note": "(single isomer, unassigned) [Example 92, 5-(5-(2-amino-[1,2,4]triazolo[1,5-a]pyridin-7-yl)-2,3-difluorophenoxy)-3-fluoro-2-(4-fluorophenyl)pentan-2-ol]", "IC50": 1390}
{"smiles": "CC(O)(c1ccc(F)cc1)C(F)(F)CCOc1c(C(F)F)ccc(-c2ccn3nc(N)nc3c2)c1F", "note": "(single isomer, unassigned) [Example 26, 5-(3-(2-amino-[1,2,4]triazolo[1,5-a]pyridin-7-yl)-6-(difluoromethyl)-2-fluorophenoxy)-3,3-difluoro-2-(4-fluorophenyl)pentan-2-ol]", "IC50": 0.3}
{"smiles": "Nc1nc2cc(-c3cc(F)c(F)c(OCCC(F)C(O)c4ccc(F)cc4)c3)ccn2n1", "note": "(single isomer, unassigned) [Example 117, 4-(5-(2-amino-[1,2,4]triazolo[1,5-a]pyridin-7-yl)-2,3-difluorophenoxy)-2-fluoro-1-(4-fluorophenyl)butan-1-ol]", "IC50": 580}
{"smiles": "CC(C)(CC(F)(F)C(C)(O)c1ccc(F)cc1)Oc1c(F)ccc(-c2ccn3nc(N)nc3c2)c1F", "note": "(single isomer, unassigned) [Example 131, 5-(3-(2-amino-[1,2,4]triazolo[1,5-a]pyridin-7-yl)-2,6-difluorophenoxy)-3,3-difluoro-2-(4-fluorophenyl)-5-methylhexan-2-ol]", "IC50": 3.4}
{"smiles": "Nc1nc2cc(-c3cccc(OCCC(F)C(O)c4ccc(F)cc4)c3F)ccn2n1", "note": "(single isomer, unassigned) [Example 84, 4-(3-(2-amino-[1,2,4]triazolo[1,5-a]pyridin-7-yl)-2-fluorophenoxy)-2-fluoro-1-(4-fluorophenyl)butan-1-ol]", "IC50": 3.2}
{"smiles": "CC(O)(c1ccccc1F)C(F)(F)CCOc1c(F)ccc(-c2ccn3nc(N)nc3c2)c1F", "note": "(single isomer, unassigned) [Example 125, 5-(3-(2-amino-[1,2,4]triazolo[1,5-a]pyridin-7-yl)-2,6-difluorophenoxy)-3,3-difluoro-2-(2-fluorophenyl)pentan-2-ol]", "IC50": 0.6}
{"smiles": "CC(O)(c1ccc(F)cc1)C(F)CCOc1c(F)ccc(-c2ccn3nc(N)nc3c2)c1F", "note": "(single isomer, unassigned) [Example 97, 5-(3-(2-amino-[1,2,4]triazolo[1,5-a]pyridin-7-yl)-2,6-difluorophenoxy)-3-fluoro-2-(4-fluorophenyl)pentan-2-ol]", "IC50": 29}
{"smiles": "CC(O)(c1ccc(Cl)cc1)C(F)(F)CCOc1c(Cl)ccc(-c2ccn3nc(N)nc3c2)c1F", "note": "(single isomer, unassigned) [Example 43, 5-(3-(2-amino-[1,2,4]triazolo[1,5-a]pyridin-7-yl)-6-chloro-2-fluorophenoxy)-2-(4-chlorophenyl)-3,3-difluoropentan-2-ol]", "IC50": 330}
{"smiles": "CC(O)(c1ccc(F)cc1)C(F)(F)CCOc1ccc(Cl)c(-c2ccn3nc(N)nc3c2)n1", "note": "(single isomer, unassigned) [Example 79, 5-((6-(2-amino-[1,2,4]triazolo[1,5-a]pyridin-7-yl)-5-chloropyridin-2-yl)oxy)-3,3-difluoro-2-(4-fluorophenyl)pentan-2-ol]", "IC50": 160}
{"smiles": "CC(O)(c1ccc(Cl)cc1)C(F)(F)CCOc1c(F)ccc(-c2ccn3nc(N)nc3c2)c1F", "note": "(single isomer, unassigned) [Example 46, 5-(3-(2-amino-[1,2,4]triazolo[1,5-a]pyridin-7-yl)-2,6-difluorophenoxy)-2-(4-chlorophenyl)-3,3-difluoropentan-2-ol]", "IC50": 0.4}
{"smiles": "CC(O)(c1ccc(F)cc1)C(F)(F)CCOc1cc(-c2ccn3nc(N)nc3c2)ccc1F", "note": "(single isomer, unassigned) [Example 57, 5-(5-(2-amino-[1,2,4]triazolo[1,5-a]pyridin-7-yl)-2-fluorophenoxy)-3,3-difluoro-2-(4-fluorophenyl)pentan-2-ol]", "IC50": 130}
{"smiles": "Nc1nc2cc(-c3ccc(Cl)c(OCCC(F)C(O)c4ccc(F)cc4)c3F)ccn2n1", "note": "(single isomer, unassigned) [Example 83, 4-(3-(2-amino-[1,2,4]triazolo[1,5-a]pyridin-7-yl)-6-chloro-2-fluorophenoxy)-2-fluoro-1-(4-fluorophenyl)butan-1-ol]", "IC50": 26}
{"smiles": "Nc1nc2cc(-c3ccc(F)c(OCCC(F)C(O)c4ccc(F)cc4)c3F)ccn2n1", "note": "(single isomer, unassigned) [Example 104, 4-(3-(2-amino-[1,2,4]triazolo-[1,5-a]pyridin-7-yl)-2,6-difluorophenoxy)-2-fluoro-1-(4-fluorophenyl)butan-1-ol]", "IC50": 2.8}
{"smiles": "Nc1nc2cc(-c3ccc(F)c(OCCC(F)C(O)c4ccc(F)cc4)c3F)ccn2n1", "note": "(single isomer, unassigned) [Example 105, 4-(3-(2-amino-[1,2,4]triazolo-[1,5-a]pyridin-7-yl)-2,6-difluorophenoxy)-2-fluoro-1-(4-fluorophenyl)butan-1-ol]", "IC50": 12}
{"smiles": "CC(O)(c1ccccc1)C(F)(F)CCOc1c(F)ccc(-c2ccn3nc(N)nc3c2F)c1F", "note": "(single isomer, unassigned) [Example 37, 5-(3-(2-amino-8-fluoro-[1,2,4]triazolo[1,5-a]pyridin-7-yl)-2,6-difluorophenoxy)-3,3-difluoro-2-phenylpentan-2-ol]", "IC50": 110}
{"smiles": "CC(O)(c1ccc(F)cc1)C(F)(F)CCOc1ccc(F)c(-c2ccn3nc(N)nc3c2)c1F", "note": "(single isomer, unassigned) [Example 8, 5-(3-(2-amino-[1,2,4]triazolo[1,5-a]pyridin-7-yl)-2,4-difluorophenoxy)-3,3-difluoro-2-(4-fluorophenyl)pentan-2-ol]", "IC50": 9}
{"smiles": "CC(O)(c1ccc(F)cc1)C(F)(F)CCOc1c(F)ccc(-c2ccc3nc(N)nn3c2)c1F", "note": "(single isomer, unassigned) [Example 76, 5-(3-(2-amino-[1,2,4]triazolo[1,5-a]pyridin-6-yl)-2,6-difluorophenoxy)-3,3-difluoro-2-(4-fluorophenyl)pentan-2-ol]", "IC50": 2}
{"smiles": "Nc1nc2cc(-c3ccc(Cl)c(OCCC(F)C(O)c4ccc(F)cc4)c3F)ccn2n1", "note": "(single isomer, unassigned) [Example 100, 4-(3-(2-amino-[1,2,4]triazolo[1,5-a]pyridin-7-yl)-6-chloro-2-fluorophenoxy)-2-fluoro-1-(4-fluorophenyl)butan-1-ol]", "IC50": 6}
{"smiles": "CC(O)(c1ccc(Cl)cc1)C(F)(F)CCOc1cccc(-c2ccn3nc(N)nc3c2)c1F", "note": "(single isomer, unassigned) [Example 47, 5-(3-(2-amino-[1,2,4]triazolo[1,5-a]pyridin-7-yl)-2-fluorophenoxy)-2-(4-chlorophenyl)-3,3-difluoropentan-2-ol]", "IC50": 23}
{"smiles": "CC(O)(c1ccc(F)cc1)C(F)(F)CCOc1c(Cl)ccc(-c2ccn3nc(N)nc3c2)c1F", "note": "(single isomer, unassigned) [Example 51, 5-(3-(2-amino-[1,2,4]triazolo[1,5-a]pyridin-7-yl)-6-chloro-2-fluorophenoxy)-3,3-difluoro-2-(4-fluorophenyl)pentan-2-ol]", "IC50": 150}
{"smiles": "Nc1nc2cc(-c3ccc(C(F)(F)F)c(OCCC(F)C(O)c4ccc(F)cc4)c3F)ccn2n1", "note": "(single isomer, unassigned) [Example 112, 4-(3-(2-amino-[1,2,4]triazolo[1,5-a]pyridin-7-yl)-2-fluoro-6-(trifluoromethyl)phenoxy)-2-fluoro-1-(4-fluorophenyl)butan-1-ol]", "IC50": 730}
